Several values for one entry are separate records, joined by “and”; a condition that tells them apart may be missing. Identical values can stand only once.
What was measured:
[1] = Brain distribution by DESI-MSI analysis after intravenous GM injection; assay type: in vivo, rat; conditions: for concentration at 0.25 h: rat, intravenous, 5 mg/kg
Procedure: GM (5 mg/kg) or vehicle (70% DMSO; 0.6 mL/kg) was injected into the tail vein of rats fasted for approximately 16 h. […] Blood samples were centrifuged at 1,700 × g and 4 °C for 15 min to obtain the plasma. The brain of each animal was immediately removed and weighed after blood collection and frozen with liquid nitrogen. The frozen brains were used for making serial sagittal thin sliced sections (thickness 25 μm, coordinate: approximately 3.4 mm lateral from the bregma) using a […][…] cryostat (Leica Microsystems, […], Germany). Some of the serial sections mounted on conventional glass slides were used for H&E staining to confirm the location of the brain region in the slice. In MALDI-MSI analysis, some sections were mounted on indium tin oxide-coated slides ([…]., Osaka, Japan) based on previous reports[35],[36] to obtain higher sensitivity. In […] analysis, some sections were mounted on conventional glass slides. These tissue sections mounted on the slides were dried in a desiccator at room temperature for 10 min for MALDI-MSI analysis or 1 h for […] analysis. In the […] analysis, the MS/MS analysis was further performed to identify the signals of GM or its hydroxylated metabolite. The MS and MS/MS analyses for […] were performed using a Xevo G2-XS Q-Tof system (Waters, Milford, MA, USA) with an Omni Spray Ion Source 2-D (Prosolia, Indianapolis, IN, USA). In both analyses, methanol/water (98:2)solution was flowed into a capillary at a 2 μL/min flow rate. The nebulizing gas pressure was set to 0.4 MPa, the capillary voltage to 5 kV, the source temperature to 100 °C, the sampling cone to 30 V, and the scan time to 0.986 sec. In the MS analysis, the collision energy was set to 4 eV, and mass spectra were acquired in target enhancement mode, which was set to m/z 367.2. In the MS/MS analysis, the collision energy was set to 20 eV, and mass spectra were acquired in target enhancement mode, which was set to m/z 144.2. Mass resolution and spatial resolution were >20,000 and 200 μm in the MS and MS/MS analyses. The protonated ions of GM ([M + H]^+: m/z 367.2) and HM ([M + H]^+: m/z 383.2) in MS and the specific fragment ions of GM (m/z 144.2) and HM (m/z 160.2) in MS/MS were detected in positive ion mode. The intensities of GM and HM detected in the DESI-MS analysis were visualized using high-definition imaging (HDI) software (Waters, Milford, MA, USA). Normal intact brains were homogenized without adding a solvent using a T-10 basic Ultra-Turrax homogenizer (IKA, Staufen, Germany) to prepare a tissue-based calibration curve for quantifying GM. For brain homogenates, various concentrations of standard GM solution (final concentration: 6.25, 12.5, and 25.0 μg/g brain) or vehicle (methanol) as a control were added and rapidly frozen. Frozen sections (thickness 25 μm) of the homogenates spiked with standard GM were made using a […][…] cryostat (Leica Microsystems). Regional intensities of GM (m/z 367.2) and a standard endogenous molecule (m/z 366.95) in brain tissue slices and homogenate slices were evaluated by the region of interest analysis using HDI software (Waters). The GM signal intensity was expressed as the average of the relative intensity ratio to the standard endogenous molecule per […] contained in the region of interest. The regional brain concentration of GM was calculated using the tissue-based calibration curve (Fig. 3D-2).

[2] = Brain distribution by MALDI-MSI analysis after intravenous GM injection; assay type: in vivo, rat; conditions: 0.25 h after 5 mg/kg GM i.v., sagittal sections
Procedure: GM (5 mg/kg) or vehicle (70% DMSO; 0.6 mL/kg) was injected into the tail vein of rats fasted for approximately 16 h. […] Blood samples were centrifuged at 1,700 × g and 4 °C for 15 min to obtain the plasma. The brain of each animal was immediately removed and weighed after blood collection and frozen with liquid nitrogen.
The frozen brains were used for making serial sagittal thin sliced sections (thickness 25 μm, coordinate: approximately 3.4 mm lateral from the bregma) using a Leica CM3050S cryostat (Leica Microsystems, Wetzlar, Germany). Some of the serial sections mounted on conventional glass slides were used for H&E staining to confirm the location of the brain region in the slice. […]
The MALDI-MSI analysis was performed on brain slice specimens sprayed with a matrix solution (40 mg/mL 2,5-dihydroxybenzoic acid) dissolved in 50% methanol using a TM-sprayer (HTX Technologies, Chapel Hill, NC, USA). […] The targeted protonated molecule GM ([M + H]^+: m/z 367.2) was detected in positive ion mode under a laser power setting of 70%, 500 laser shots, and the continuous accumulation of selected ions mode set to ON at m/z 360 ± 50. […] GM intensity detected by the MALDI-MS analysis was visualized using FlexImaging software (Bruker Daltonics).

[3] = Plasma concentrations of GM and HM-1/2 by LC-MS/MS after intravenous GM injection; assay type: in vivo, rat
Procedure: GM (5 mg/kg) or vehicle (70% DMSO; 0.6 mL/kg) was injected into the tail vein of rats fasted for approximately 16 h. […] Blood samples were centrifuged at 1,700 × g and 4 °C for 15 min to obtain the plasma. The brain of each animal was immediately removed and weighed after blood collection and frozen with liquid nitrogen. On the day of analysis, frozen plasma from GM-treated rats was thawed at room temperature, and 25 µL of the plasma was mixed with equal volumes of methanol and an IS vincamine (1 ng/mL) and 150 μL of ethyl acetate. To prepare the calibration curve, blank plasma and various concentrations of working solution (final plasma concentration: 0.08–2 µg/mL) were used instead of methanol and GM-treated plasma. The mixture was centrifuged at 7,000 × g and 4 °C for 5 min. The supernatant was dried under a stream of nitrogen gas. The dried residue was dissolved in 60 μL of the initial mobile phase of LC, and then, a 5-μL aliquot was injected into the LC-MS/MS system composed of an Agilent 1290 LC (Agilent Technologies, Santa Clara, CA, USA) and a TripleQuad6500 MS/MS (SCIEX, Framingham, MA, USA) for measuring GM and its hydroxylated forms. The analytical conditions for LC-MS/MS were set according to previously reported methods with minor modifications[10],[15]. The protonated ions ([M + H]^+) of GM (m/z 367.0), HM-1/2 isomers (m/z 383.3), and vincamine (m/z 355.3) in Q1 (the first MS) or their specific fragment ions (GM: m/z 144.1, HM-1/2 isomers: m/z 160.2, vincamine: m/z 337.1) in Q3 (the second MS) were selected and detected by SRM using positive ion mode. Although a qualifier ion was not monitored in their analysis, the specificities of GM, HM-1/2 and vincamine in rat plasma were already confirmed by previous studies[10],[14]. The calibration curve for quantification of plasma GM concentrations was prepared using Analyst software (version 1.6.2, AB SCIEX). The plasma concentrations of HM-1/2 were expressed as relative peak area ratios of vincamine (IS) because there are currently no standard products for measuring these compounds.

[4] = set-up: method as in PMID 23813572, PMID 30741064; conditions: plasma and brain, after oral YKS administration to rats; cited from earlier work
[5] = set-up: method as in PMID 21442303; conditions: cultured cells; cited from earlier work
[6] = tested on: normal rat brain slices; set-up: method as in PMID 25456433, PMID 28377723; conditions: [^3H]GM directly exposed to normal rat brain slices; cited from earlier work
[7] = Amygdala, 0.25 h, individual animals
[8] = Cerebellum, 0.25 h, individual animals
[9] = Fourth ventricle, 0.25 h, individual animals
[10] = Frontal lobe, 0.25 h, individual animals
[11] = Hippocampus, 0.25 h, individual animals
[12] = Lateral ventricle, 0.25 h, individual animals
[13] = Occipital lobe, 0.25 h, individual animals
[14] = Striatum, 0.25 h, individual animals
[15] = Thalamus, 0.25 h, individual animals

SMILES: CC=C1CN2CCc3c([nH]c4ccccc34)C2CC1C(=COC)C(=O)OC (stereo not shown) [GM, Geissoschizine methyl ether]
- GM ion signal in brain, DESI-MSI image ([1]; 0.25 h after 5 mg/kg GM i.v., sagittal sections): a diffuse GM ion signal was observed throughout the brain parenchyma
- Calculated GM concentration [1, 7]: 1.0 µg/g and 2.2 µg/g and 1.2 µg/g
- Ion intensity of GM per pixel in ROI [1, 7]: 2.4 ×10^4 and 3.7 ×10^4 and 9.7 ×10^4
- Ratio of GM/endogenous standard molecule [1, 7]: 0.8 and 1.8 and 1.0
- Calculated GM concentration [1, 8]: 0.8 µg/g and 2.0 µg/g and 1.1 µg/g
- Ion intensity of GM per pixel in ROI [1, 8]: 4.2 ×10^4 and 2.4 ×10^4 and 8.7 ×10^4
- Ratio of GM/endogenous standard molecule [1, 8]: 0.7 and 1.7 and 0.9
- GM intensity in the parenchyma ([1]; DESI-MSI, 1 and 4 h after 5 mg/kg GM i.v.): almost disappeared
- intracerebroventricular GM intensity ([1]; DESI-MSI, 0.25 h, also detected at 1 and 4 h): higher than the intensity in other parenchymal areas
- Calculated GM concentration [1, 9]: 2.3 µg/g and 2.0 µg/g
- Ion intensity of GM per pixel in ROI [1, 9]: 4.0 ×10^4 and 3.9 ×10^4 and 26.5 ×10^4
- Ratio of GM/endogenous standard molecule [1, 9]: 1.0 and 1.9 and 1.7
- Calculated GM concentration [1, 10]: 1.0 µg/g and 2.6 µg/g and 1.2 µg/g
- Ion intensity of GM per pixel in ROI [1, 10]: 2.9 ×10^4 and 5.4 ×10^4 and 9.1 ×10^4
- Ratio of GM/endogenous standard molecule [1, 10]: 0.8 and 2.2 and 1.0
- Calculated GM concentration [1, 11]: 2.3 µg/g and 1.1 µg/g and 0.8 µg/g
- Ion intensity of GM per pixel in ROI [1, 11]: 4.7 ×10^4 and 10 ×10^4 and 2.0 ×10^4
- Ratio of GM/endogenous standard molecule [1, 11]: 1.9 and 0.9 and 0.7
- Calculated GM concentration [1, 12]: 1.4 µg/g and 4.5 µg/g and 2.9 µg/g
- Ion intensity of GM per pixel in ROI [1, 12]: 3.0 ×10^4 and 8.3 ×10^4 and 21.2 ×10^4
- Ratio of GM/endogenous standard molecule [1, 12]: 1.2 and 3.8 and 2.4
- Calculated GM concentration [1, 13]: 1.1 µg/g and 2.7 µg/g and 1.3 µg/g
- Ion intensity of GM per pixel in ROI [1, 13]: 2.9 ×10^4 and 4.8 ×10^4 and 10.5 ×10^4
- Ratio of GM/endogenous standard molecule [1, 13]: 0.9 and 2.3 and 1.1
- Calculated GM concentration [1, 14]: 0.8 µg/g and 2.6 µg/g and 1.1 µg/g
- Ion intensity of GM per pixel in ROI [1, 14]: 1.9 ×10^4 and 3.9 ×10^4 and 7.2 ×10^4
- Ratio of GM/endogenous standard molecule [1, 14]: 0.7 and 2.2 and 0.9
- Calculated GM concentration [1, 15]: 0.7 µg/g and 2.4 µg/g and 1.1 µg/g
- Ion intensity of GM per pixel in ROI [1, 15]: 1.7 ×10^4 and 4.5 ×10^4 and 8.8 ×10^4
- Ratio of GM/endogenous standard molecule [1, 15]: 0.6 and 2.0 and 0.9
- concentration at 0.25 h ([1]; brain (fourth ventricle), Fourth ventricle, 0.25 h, individual animals, read-out: Calculated GM concentration): 1200 ng/g
- concentration at 0.25 h ([1]; 0.25 h after 5 mg/kg GM i.v., cerebral cortex, hippocampus, striatum, amygdala, thalamus, cerebellum, lateral ventricle, read-out: regional brain GM concentration range): 1300 to 2900 ng/g
- GM ion signal in brain, MALDI-MSI image [2]: a diffuse GM ion signal was observed throughout the brain parenchyma
- time course of plasma GM concentration ([3]; 0.25-4 h after 5 mg/kg GM i.v., rat): rapidly decreased in a time-dependent manner over 4 h
- plasma concentration relative to maximum concentration after oral YKS ([3]; 0.25 h after 5 mg/kg GM i.v. vs maximum concentration 1 h after oral 1 g/kg YKS): approximately 500 times
- distribution volume ([3]; one-compartment analysis, 5 mg/kg GM i.v., rat): 4.4 L/kg
- concentration at 0.25 h ([3]; plasma, iv, 0.25 h postinjection, 5 mg/kg GM i.v., rat): 1070 ng/mL
- half-life ([3]; plasma, iv, one-compartment analysis, 5 mg/kg GM i.v., rat, read-out: apparent elimination half-life (converted)): 1.8 h
- k el ([3]; plasma, iv, one-compartment analysis, 5 mg/kg GM i.v., rat, read-out: elimination rate constant (converted)): 0.000111 s⁻¹
- clearance ([3]; plasma, iv, one-compartment analysis, 5 mg/kg GM i.v., rat, read-out: total clearance (converted)): 28.3 mL/min/kg
- tmax [4]: 0.5 h
- BBB permeability [5]: comparatively high
- binding to brain slices [6]: specifically bound to various regions appearing on the surface of brain slices
